Measured values as given in patent publication US11180462B2, “Microbiocidal oxadiazole derivatives” (SYNGENTA PARTICIPATIONS AG, priority 2015, dated 2021).

Experiments:
[1] = system: Puccinia recondita f. Sp. Tritici; test: Fungicidal activity against Puccinia recondita f. sp. tritici / wheat / leaf disc preventative (brown rust); type: in vivo; settings: foliar, 200 ppm in the applied formulation, wheat leaf segments, preventative, compared to untreated control leaf disks, read-out: disease control
How it was run: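 Compound application precedes infection: segments of wheat cv. Kanzler, sprayed at 200 ppm, are inoculated with a spore suspension after 1 day. Incubation is at 19° C. with 75% relative humidity and 12 h light/12 h darkness, and control versus untreated leaves is rated 7 to 9 days post-application.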

[2] = system: Glomerella lagenarium (Colletotrichum lagenarium); test: Fungicidal activity against Glomerella lagenarium (Colletotrichum lagenarium) liquid culture / cucumber / preventative (anthracnose); type: cell-based; settings: Colletotrichum orbiculare; 20 ppm in the applied formulation; liquid culture (PDB), growth inhibition measured photometrically after 3 to 4 days; compared to untreated control; read-out: disease control
How it was run: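 Photometric read-out of fungal growth after 2–7 days, expressed as percent antifungal activity versus untreated check. Cryo-stored conidia in PDB; compound at 20 ppm; dark, 24 °C, 96% RH.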

[3] = system: Puccinia recondita f. Sp. Tritici; test: Fungicidal activity against Puccinia recondita f. sp. tritici / wheat / leaf disc curative (brown rust); type: in vivo; settings: foliar, 24 h, 200 ppm in the applied formulation, wheat leaf segments, curative (applied 1 day after inoculation), compared to untreated control leaf disks, read-out: disease control
How it was run: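 Inoculate cv. Kanzler segments on agar; hold dark, 19° C, 75% RH. Spray diluted formulated compound at day 1. Incubate 12 h light/12 h dark, same temperature and humidity; score % control vs untreated 6–8 days later.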

Phakopsora Pachyrhizi = test: Fungicidal activity against Phakopsora pachyrhizi / soybean / leaf disc preventative (Asian soybean rust); type: in vivo; settings: foliar, 200 ppm in the applied formulation, soybean leaf disks, compared to untreated control leaf disks, read-out: disease control
How it was run: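 Preventative soybean leaf-disc test: discs on water agar sprayed with diluted formulated compound, inoculated one day later with spores on the lower surface. Held 24–36 h dark at 20°C, 75% rh, then 12 h light/day; percent disease control versus untreated discs scored 12–14 days after application.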

CON(Cc1ccc(-c2noc(C(F)(F)F)n2)cc1)C(=O)c1ccccc1 [Compound 1.3, N-methoxy-N-[[4-[5-(trifluoromethyl)-1,2,4-oxadiazol-3-yl]phenyl]methyl]-benzamide]
≥ 80%: pest or weed control at 200 ppm [1] | inhibition of growth at 20 ppm [2] | pest or weed control at 200 ppm [3] | pest or weed control at 200 ppm (Phakopsora Pachyrhizi)

CON(Cc1ccc(-c2noc(C(F)(F)F)n2)cc1)C(=O)Cc1ccccc1 [Compound 1.4, N-methoxy-2-phenyl-N-[[4-[5-(trifluoromethyl)-1,2,4-oxadiazol-3-yl]phenyl]methyl]-acetamide]
≥ 80%: pest or weed control at 200 ppm [1] | inhibition of growth at 20 ppm [2] | pest or weed control at 200 ppm [3] | pest or weed control at 200 ppm (Phakopsora Pachyrhizi)

CON(Cc1ccc(-c2noc(C(F)(F)F)n2)cc1)C(=O)C1(C(F)(F)F)CC1 [Compound 1.6, N-methoxy-1-(trifluoromethyl)-N-[[4-[5-(trifluoromethyl)-1,2,4-oxadiazol-3-yl]phenyl]methyl]-cyclopropane-carboxamide]
≥ 80%: pest or weed control at 200 ppm [1] | inhibition of growth at 20 ppm [2] | pest or weed control at 200 ppm [3] | pest or weed control at 200 ppm (Phakopsora Pachyrhizi)

CON(Cc1ccc(-c2noc(C(F)(F)F)n2)cc1)C(=O)CC1CCCC1 [Compound 1.8, 2-cyclopentyl-N-methoxy-N-[[4-[5-(trifluoromethyl)-1,2,4-oxadiazol-3-yl]phenyl]methyl]-acetamide]
≥ 80%: pest or weed control at 200 ppm [1] | inhibition of growth at 20 ppm [2] | pest or weed control at 200 ppm [3] | pest or weed control at 200 ppm (Phakopsora Pachyrhizi)

C#CCCC(=O)N(Cc1ccc(-c2noc(C(F)(F)F)n2)cc1)OC [Compound 1.11, N-methoxy-N-[[4-[5-(trifluoromethyl)-1,2,4-oxadiazol-3-yl]phenyl]methyl]-pent-4-ynamide]
≥ 80%: pest or weed control at 200 ppm [1] | inhibition of growth at 20 ppm [2] | pest or weed control at 200 ppm [3] | pest or weed control at 200 ppm (Phakopsora Pachyrhizi)

CON(Cc1ccc(-c2noc(C(F)(F)F)n2)cc1)C(=O)C(C)C [Compound 1.12, N-methoxy-2-methyl-N-[[4-[5-(trifluoromethyl)-1,2,4-oxadiazol-3-yl]phenyl]methyl]-propanamide]
≥ 80%: pest or weed control at 200 ppm [1] | inhibition of growth at 20 ppm [2] | pest or weed control at 200 ppm [3] | pest or weed control at 200 ppm (Phakopsora Pachyrhizi)

CON(Cc1ccc(-c2noc(C(F)(F)F)n2)cc1)C(=O)C1CC1(F)F (stereo not shown) [Compound 1.15, 2,2-difluoro-N-methoxy-N-[[4-[5-(trifluoromethyl)-1,2,4-oxadiazol-3-yl]phenyl]methyl]-cyclopropane-carboxamide]
≥ 80%: pest or weed control at 200 ppm [1] | inhibition of growth at 20 ppm [2] | pest or weed control at 200 ppm [3] | pest or weed control at 200 ppm (Phakopsora Pachyrhizi)

CON(Cc1ccc(-c2noc(C(F)(F)F)n2)cc1)C(=O)C1CCCCC1 [Compound 1.16, N-methoxy-N-[[4-[5-(trifluoromethyl)-1,2,4-oxadiazol-3-yl]phenyl]methyl]-cyclohexane-carboxamide]
≥ 80%: pest or weed control at 200 ppm [1] | inhibition of growth at 20 ppm [2] | pest or weed control at 200 ppm [3] | pest or weed control at 200 ppm (Phakopsora Pachyrhizi)

C=CCCC(=O)N(Cc1ccc(-c2noc(C(F)(F)F)n2)cc1)OC [Compound 1.17, N-methoxy-N-[[4-[5-(trifluoromethyl)-1,2,4-oxadiazol-3-yl]phenyl]methyl]-pent-4-enamide]
≥ 80%: pest or weed control at 200 ppm [1] | inhibition of growth at 20 ppm [2] | pest or weed control at 200 ppm [3] | pest or weed control at 200 ppm (Phakopsora Pachyrhizi)

CON(Cc1ccc(-c2noc(C(F)(F)F)n2)cc1)C(=O)C1(C(F)(F)F)CCC1 [Compound 1.19, N-methoxy-1-(trifluoromethyl)-N-[[4-[5-(trifluoromethyl)-1,2,4-oxadiazol-3-yl]phenyl]methyl]-cyclobutane-carboxamide]
≥ 80%: pest or weed control at 200 ppm [1] | inhibition of growth at 20 ppm [2] | pest or weed control at 200 ppm [3] | pest or weed control at 200 ppm (Phakopsora Pachyrhizi)

CCCCCC(=O)N(Cc1ccc(-c2noc(C(F)(F)F)n2)cc1)OC [Compound 1.20, N-methoxy-N-[[4-[5-(trifluoromethyl)-1,2,4-oxadiazol-3-yl]phenyl]methyl]-hexanamide]
≥ 80%: pest or weed control at 200 ppm [1] | inhibition of growth at 20 ppm [2] | pest or weed control at 200 ppm [3] | pest or weed control at 200 ppm (Phakopsora Pachyrhizi)

CON(Cc1ccc(-c2noc(C(F)(F)F)n2)cc1)C(=O)C(C)CC(C)=O (stereo not shown) [Compound 1.22, N-methoxy-2-methyl-4-oxo-N-[[4-[5-(trifluoromethyl)-1,2,4-oxadiazol-3-yl]phenyl]methyl]-pentanamide]
≥ 80%: pest or weed control at 200 ppm [1] | inhibition of growth at 20 ppm [2] | pest or weed control at 200 ppm [3] | pest or weed control at 200 ppm (Phakopsora Pachyrhizi)

CCCC(=O)N(Cc1ccc(-c2noc(C(F)(F)F)n2)cc1)OC [Compound 1.24, N-methoxy-N-[[4-[5-(trifluoromethyl)-1,2,4-oxadiazol-3-yl]phenyl]methyl]-butanamide]
≥ 80%: pest or weed control at 200 ppm [1] | inhibition of growth at 20 ppm [2] | pest or weed control at 200 ppm [3] | pest or weed control at 200 ppm (Phakopsora Pachyrhizi)

CON(Cc1ccc(-c2noc(C(F)(F)F)n2)cc1)C(=O)CC1CC1 [Compound 1.26, 2-cyclopropyl-N-methoxy-N-[[4-[5-(trifluoromethyl)-1,2,4-oxadiazol-3-yl]phenyl]methyl]-acetamide]
≥ 80%: pest or weed control at 200 ppm [1] | inhibition of growth at 20 ppm [2] | pest or weed control at 200 ppm [3] | pest or weed control at 200 ppm (Phakopsora Pachyrhizi)

CON(Cc1ccc(-c2noc(C(F)(F)F)n2)cc1)C(=O)C1CCCC1 [Compound 1.27, N-methoxy-N-[[4-[5-(trifluoromethyl)-1,2,4-oxadiazol-3-yl]phenyl]methyl]-cyclopentane-carboxamide]
≥ 80%: pest or weed control at 200 ppm [1] | inhibition of growth at 20 ppm [2] | pest or weed control at 200 ppm [3] | pest or weed control at 200 ppm (Phakopsora Pachyrhizi)

CON(Cc1ccc(-c2noc(C(F)(F)F)n2)cc1)C(=O)Cc1cccnc1 [Compound 1.28, N-methoxy-2-(3-pyridyl)-N-[[4-[5-(trifluoromethyl)-1,2,4-oxadiazol-3-yl]phenyl]methyl]-acetamide]
≥ 80%: pest or weed control at 200 ppm [1] | inhibition of growth at 20 ppm [2] | pest or weed control at 200 ppm [3] | pest or weed control at 200 ppm (Phakopsora Pachyrhizi)

CON(Cc1ccc(-c2noc(C(F)(F)F)n2)cc1)C(=O)C1CCOC1 (stereo not shown) [Compound 1.29, N-methoxy-N-[[4-[5-(trifluoromethyl)-1,2,4-oxadiazol-3-yl]phenyl]methyl]-tetrahydrofuran-3-carboxamide]
≥ 80%: pest or weed control at 200 ppm [1] | inhibition of growth at 20 ppm [2] | pest or weed control at 200 ppm [3] | pest or weed control at 200 ppm (Phakopsora Pachyrhizi)

CON(Cc1ccc(-c2noc(C(F)(F)F)n2)cc1)C(=O)C1CSC1 [Compound 1.30, N-methoxy-N-[[4-[5-(trifluoromethyl)-1,2,4-oxadiazol-3-yl]phenyl]methyl]-thietane-3-carboxamide]
≥ 80%: pest or weed control at 200 ppm [1] | inhibition of growth at 20 ppm [2] | pest or weed control at 200 ppm [3] | pest or weed control at 200 ppm (Phakopsora Pachyrhizi)

COCCC(=O)N(Cc1ccc(-c2noc(C(F)(F)F)n2)cc1)OC [Compound 1.31, N,3-dimethoxy-N-[[4-[5-(trifluoromethyl)-1,2,4-oxadiazol-3-yl]phenyl]methyl]-propanamide]
≥ 80%: pest or weed control at 200 ppm [1] | inhibition of growth at 20 ppm [2] | pest or weed control at 200 ppm [3] | pest or weed control at 200 ppm (Phakopsora Pachyrhizi)
